Experimental data as given in PMC2410273, “Pharmacokinetic behaviour of the chemoprotectants BNP7787 and mesna after an i.v. bolus injection in rats” (British Journal of Cancer, 2004).
Like-named read-outs stand apart in the source and are kept apart here.

Tests used:
[1] = parameters: method as in Hausheer et al, 1998; settings: dogs, ref Hausheer et al, 1998; cited from earlier work
[2] = test system: cisplatin-induced toxicity; parameters: method as in Boven et al, 2002; settings: nude mice; in the presence of 1000 mg kg^−1 BNP7787; ref Boven et al, 2002; cited from earlier work
[3] = parameters: method as in Ormstad et al, 1983; settings: in vitro, ref Ormstad et al, 1983, cited from earlier work
[4] = test system: antitumour activity of cisplatin; parameters: method as in Boven et al, 2002; settings: tumour-bearing nude mice; given preceding cisplatin; ref Boven et al, 2002; cited from earlier work
[5] = Pharmacokinetics and tissue distribution of BNP7787 and mesna after i.v. bolus of BNP7787 or mesna in WARD tumour-bearing rats; type: in vivo, Fischer rats; settings: for Kp: female, Fischer, rat, iv, 1000 mg/kg
From the text: The protocol was approved by the ethics committee for animal experiments of the Vrije Universiteit medical center in Amsterdam, The Netherlands. This committee strictly adheres to the standards required by the UKCCCR for the welfare of animals in neoplasia ([Workman et al, 1998]). Female Fischer rats (144–171 g) were obtained from Harlan (Indianapolis, USA) and were implanted subcutaneously in both flanks with fragments (2–3 mm diameter) of the WARD colorectal tumour ([Cao et al, 1994]). The pharmacokinetic study started at the time the tumours had reached a mean size of approximately 600 mm^3 (range 250–900 mm^3).
Tumour-bearing rats were treated with 1000 mg kg^−1 BNP7787 i.v. or 1000 mg kg^−1 mesna i.v. injected in the tail vein. Approximately 5 min before sample collection, the rats were anaesthetised by i.p. injection with 0.1 ml of a mixture of 75 mg ml^−1 ketamine plus 5 mg ml^−1 xylazine per 100 g weight. Blood was obtained by heart puncture at 0, 5, 15, 30, 45, 60, 90 and 150 min after i.v. administration of BNP7787 or mesna. Thereafter, the kidney, liver and tumour were removed by surgical dissection. In addition, at time points 0 and 30 min, skeletal muscle attached to the thighbone was also collected. At each time point three rats were killed.
Immediately after collection, the blood samples, which were collected in cooled EDTA-containing tubes (potassium-EDTA 1.6 mg EDTA ml^−1 blood; Sarstedt, Germany), were centrifuged at 4°C for 10 min at 4000 g. Plasma was separated and immediately deproteinised by adding one volume of sulphuric acid (0.33 M) and one volume of sodium hexametaphosphate (5 g/100 ml). After vortexing and centrifugation for 2 min at 12 000 g, the supernatant was stored in aliquots at −80°C until analysis. One volume of RBCs was washed with 1 volume of cold phosphate-buffered saline (PBS) of pH 7.4 containing sodium phosphate (10 mM) and NaCl (140 mM; Hospital Pharmacy, VUmc, Amsterdam, The Netherlands). This mixture was centrifuged for 2 min, 12 000 g at 4°C. After removing the PBS, the remaining RBCs were stored in liquid nitrogen until further processing.
The kidney, liver, tumour and skeletal muscle were washed with cold PBS before storage in liquid nitrogen. After collection of all the samples at the different time points, tissue homogenates of kidney, liver, tumour and skeletal muscle were prepared by pulverisation using a Braun Micro-dismembrator (Salm and Kipp; Breukelen, The Netherlands) according to the method described by [Peters et al (1986)]. An appropriate volume of aqueous EDTA (1 g l^−1) was added to the RBC and tissue homogenates to obtain a concentration of 100 mg tissue (wet weight) per ml. After sonification (10 min) and vortexing (10 min), the samples were subsequently deproteinised by adding 1 volume of cold sulphuric acid (0.33 M) and 1 volume of cold sodium hexametaphosphate (5 g/100 ml). After thorough vortexing and centrifugation (2 min at 8500 g at 4°C), the supernatants were stored in aliquots at −80° until analysis.
BNP7787 and mesna concentrations were determined selectively in one run using micro-HPLC with a dual electrochemical detector (dual ECD) ([Verschraagen et al, 2003b]). Briefly, citrate-NaOH buffer (40 μl of a mixture of 1 ml 5.0 M sodium hydroxide and 4 ml 0.5 M tri-sodium citrate buffer, pH 3.0) was added to 200 μl of deproteinised plasma, RBC or tissue sample, and the sample was injected into the micro-HPLC system which consisted of a Phenomenex C18 guard column (10 μm, 4 × 2.0 mm) and a Phenomenex Prodigy C18 ODS-3 column (5 μm, 100 × 1.0 mm; Bester, Amstelveen, The Netherlands).

[6] = test system: intestinal and renal epithelial cells; parameters: method as in earlier work; settings: isolated cells, via facilitated transport, ref Ormstad and Uehara, 1982, Ormstad et al, 1983, Brock et al, 1984, Ormstad and Ohno; cited from earlier work
[7] = test system: antitumour activity of cisplatin; parameters: method as in Hausheer et al, 1998; settings: tumour-bearing rats; given preceding cisplatin; ref Hausheer et al, 1998; cited from earlier work
[8] = parameters: method as in Verschraagen et al, in press; settings: cancer patients, ref Verschraagen et al, in press, cited from earlier work
[9] = parameters: method as in Hausheer et al, 1998; settings: rats, ref Hausheer et al, 1998; cited from earlier work
[10] = test system: cisplatin-induced nephrotoxicity; parameters: method as in Hausheer et al, 1998; settings: dogs; plasma creatinine, BUN, renal histopathology; ref Hausheer et al, 1998; cited from earlier work
[11] = after 1000 mg kg^−1 BNP7787 i.v., RBC
[12] = after 1000 mg kg^−1 BNP7787 i.v., kidney
[13] = after 1000 mg kg^−1 BNP7787 i.v., liver
[14] = after 1000 mg kg^−1 BNP7787 i.v., plasma
[15] = after 1000 mg kg^−1 BNP7787 i.v., tumour

O=S(=O)([O-])CCSSCCS(=O)(=O)[O-].[Na+].[Na+] [BNP7787, disodium 2,2′-dithio-bis-ethane sulphonate]
nontoxic dose after i.v. administration [1]: 2000 mg/kg
weight loss on cisplatin dose increase from 5 to 8 mg kg^−1 [2]: weight loss increased
reduction of BNP7787 into mesna ([3]; cytosol fraction of the kidney cortex): large reduction
reduction of BNP7787 into mesna ([3]; plasma): very limited
effect on antitumour activity of cisplatin [4]: did not reduce the antitumour activity of cisplatin
mean concentration (±s.d.) in skeletal muscle ([5]; 30 min after 1000 mg kg^−1 BNP7787 i.v.): 36.9 ± 26.0 nmol/g
mean concentration (±s.d.) in skeletal muscle ([5]; 30 min after 1000 mg kg^−1 mesna i.v.): 30.3 ± 17.6 nmol/g
AUC (printed: concentration) after BNP7787 administration compared with after mesna administration ([5]; RBC, each 1000 mg kg^−1 i.v., P<0.01): six-fold lower
AUC of BNP7787, fold lower than AUC of mesna [5, 11]: 11.4 fold
time detectable [5, 11]: 30 min
time of highest concentrations / peak levels ([5]; after 1000 mg kg^−1 BNP7787 i.v., all compartments): 5 min
AUC of BNP7787, fold lower than AUC of mesna [5, 12]: 2.7 fold
time detectable [5, 12]: 90 min
AUC of BNP7787, fold lower than AUC of mesna [5, 13]: 39.8 fold
time detectable [5, 13]: 30 min
AUC of BNP7787 relative to AUC of mesna [5, 14]: almost two-fold higher
time detectable [5, 14]: 90 min
AUC of BNP7787, fold lower than AUC of mesna [5, 15]: 5.1 fold
time detectable [5, 15]: 45 min
time detectable ([5]; after 1000 mg kg^−1 mesna i.v., kidney): at least 150 min
time detectable ([5]; after 1000 mg kg^−1 mesna i.v., plasma): at least 150 min
time detectable ([5]; after 1000 mg kg^−1 mesna i.v., tumour): at least 150 min
AUC^5−60 in plasma, fold higher in rats than in nude mice ([5]; after equivalent dose of 1000 mg kg^−1 BNP7787, mouse data ref Boven et al, 2002): 2.7 fold
AUC, fold lower than the corresponding value in kidney ([5]; all other sampled tissue compartments, after either BNP7787 or mesna): at least 5.5 fold
Kp ([5]; all tissue compartments other than kidney / plasma, after 1000 mg kg^−1 mesna i.v., all tissue compartments other than kidney, read-out: tissue–plasma AUC ratio): < 0.3
Kp ([5]; kidney / plasma, after 1000 mg kg^−1 BNP7787 i.v., read-out: kidney–plasma AUC ratio): 0.9
Kp ([5]; kidney / plasma, after 1000 mg kg^−1 mesna i.v., read-out: kidney–plasma AUC ratio): 2.1
Kp ([5]; liver / plasma, after 1000 mg kg^−1 BNP7787 i.v., read-out: liver–plasma AUC ratio): 0.01
Kp ([5]; red blood cells / plasma, after 1000 mg kg^−1 BNP7787 i.v., read-out: RBC–plasma AUC ratio): 0.01
Kp ([5]; tumour / plasma, after 1000 mg kg^−1 BNP7787 i.v., read-out: tumour–plasma AUC ratio): 0.08
AUC after BNP7787 administration compared with after mesna administration ([5]; kidney, each 1000 mg kg^−1 i.v.): smaller, but not significant difference
AUC after BNP7787 administration compared with after mesna administration ([5]; liver, each 1000 mg kg^−1 i.v.): not significantly different
AUC after BNP7787 administration compared with after mesna administration ([5]; plasma, each 1000 mg kg^−1 i.v., P<0.01): more than three-fold higher
AUC after BNP7787 administration compared with after mesna administration ([5]; tumour, each 1000 mg kg^−1 i.v.): not significantly different
cellular uptake [6]: preferentially taken up in intestinal and renal epithelial cells
effect on antitumour activity of cisplatin [7]: did not reduce the antitumour activity of cisplatin
pharmacokinetic interaction with intact cisplatin ([8]; BNP7787 18.4–41 g m^−2): no mutual pharmacokinetic interaction
relatively nontoxic dose ([8]; phase I, BNP7787 preceding cisplatin): ≤ 41 g m^−2
nontoxic dose after i.v. administration [9]: 4000 mg/kg
protection against cisplatin-induced nephrotoxicity [10]: completely protected
